From ChEMBL document CHEMBL1157022, “Synthesis, cytotoxicity and DNA-binding of novel bisnaphthalimidopropyl derivatives in breast cancer MDA-MB-231 cells” (Eur J Med Chem, 2010)

Columns and labels:
Nucleic Acid [1] = assay: Binding affinity to calf thymus DNA assessed as temperature required to cause 50% of DNA denatured at 10 uM by thermal denaturation assay; assay type: nucleic-acid assay; details: Bos taurus
Nucleic Acid [2] = assay: Displacement of ethidium bromide from calf thymus DNA assessed as decrease of fluorescence of bound ethidium bromide by fluorometric assay; assay type: nucleic-acid assay; details: Bos taurus
MDA-MB-231 [3] = assay: Cytotoxicity against human MDA-MB-231 cells after 24 hrs by MTT assay; assay type: functional, cell-based; details: MDA-MB-231, 24 h
MDA-MB-231 [4] = assay: Cytotoxicity against human MDA-MB-231 cells after 48 hrs by MTT assay; assay type: functional, cell-based; details: MDA-MB-231, 48 h
[5] = Cytotoxicity against human MCF10A cells after 24 hrs by MTT assay; assay type: cell-based; details: MCF-10A
[6] = Cytotoxicity against human MCF10A cells after 48 hrs by MTT assay; assay type: cell-based; details: MCF-10A
MCF7 = assay: Cytotoxicity against human MCF7 cells after 48 hrs; assay type: functional, cell-based; details: MCF7, 48 h
CHO = assay: Cytotoxicity against CHO cells expressing MGBG polyamine transporter after 48 hrs by MTT assay; assay type: ADME, cell-based; details: Cricetulus griseus
CHO-MG = assay: Cytotoxicity against MGBG polyamine transporter deficient CHO-MG cells after 48 hrs by MTT assay; assay type: ADME, cell-based; details: Cricetulus griseus
[7] = tested on: MGBG polyamine transporter; assay: Ratio of IC50 for MGBG polyamine transporter deficient CHO-MG cells to IC50 for CHO cells expressing MGBG polyamine transporter; assay type: cell-based, Cricetulus griseus; details: chinese hamster; read-out: Ratio IC50
MDA-MB-231 [8] = assay: Drug uptake in human MDA-MB-231 cells at 10 uM after 6 hrs by fluorescence microscopic analysis; assay type: ADME, cell-based; details: mda-mb-231, 6 h
MDA-MB-231 [9] = assay: Drug uptake in human MDA-MB-231 cells at 10 uM after 0.5 hrs by fluorescence microscopic analysis; assay type: ADME, cell-based; details: mda-mb-231, 0.5 h

Row | Compound | Tm (Nucleic Acid [1]) | C50 (Nucleic Acid [2]) | IC50 (MDA-MB-231 [3]) | IC50 (MDA-MB-231 [4]) | IC50 [5] | IC50 [6] | IC50 (MCF7) | IC50 (CHO) | IC50 (CHO-MG) | selectivity ratio [7] | Drug uptake (MDA-MB-231 [8]) | Drug uptake (MDA-MB-231 [9])
1 | NCCCN1C(=O)c2cccc3cccc(c23)C1=O [NAPHTHALIMIDOPROPYLAMINE] | 66.3 °C | > 10 µM | > 40 µM | > 40 µM | > 40 µM | > 40 µM |  |  |  |  |  | 
2 | O=C1c2cccc3cccc(c23)C(=O)N1CCCNCCCCNCCCN1C(=O)c2cccc3cccc(c23)C1=O | 89.2 °C | 1.5 µM | 7.86 µM | 5.12 µM | 8.1 µM | 5.67 µM |  |  |  |  |  | 
3 | Br.O=C1c2cccc3cccc(c23)C(=O)N1CCCNCCCCNCCCNCCCN1C(=O)c2cccc3cccc(c23)C1=O [BISNAPHTHALIMIDOPROPYL SPERMIDINE TRIHYDROBROMIDE] | 91.5 °C | 1.4 µM | 12.7 µM | 4.59 µM | 4.19 µM | 3.97 µM | 1.38 µM | 76.5 µM | 74.6 µM | 1 | Active | 
4 | O=C1c2c(O)ccc(O)c2C(=O)c2c(NCCNCCO)ccc(NCCNCCO)c21 | 91 °C |  |  |  |  |  |  |  |  |  |  | 
5 | CC(/C=N/NC(=N)N)=N\NC(=N)N [MITOGUAZONE] |  |  |  |  |  |  |  | 3.3 µM | > 100 µM | > 30.2 |  | 
6 | O=C1c2cccc3cccc(c23)C(=O)N1CCCNC1CCCC(CC2CCCC(NCCCN3C(=O)c4cccc5cccc(c45)C3=O)C2)C1 (configuration not stated) | 87.4 °C | 3.8 µM | 6.84 µM | 6.06 µM | 6.06 µM | 5.71 µM |  | 6.2 µM | 6.3 µM | 1 |  | 
7 | O=C1c2cccc3cccc(c23)C(=O)N1CCCNCCCCCCCCCCNCCCN1C(=O)c2cccc3cccc(c23)C1=O [BNIPDADEC] | 84.4 °C | 1.8 µM | 4.85 µM | 3.32 µM | 2.77 µM | 2.82 µM |  |  |  |  |  | 
8 | O=C1c2ccccc2C(=O)N1CCCNCCCCCCCCCCNCCCN1C(=O)c2ccccc2C1=O | 72 °C | > 10 µM | > 40 µM | > 40 µM | > 40 µM | > 40 µM |  |  |  |  |  | 
9 | Br.O=C1c2cccc3cccc(c23)C(=O)N1CCCNCCOCCOCCNCCCN1C(=O)c2cccc3cccc(c23)C1=O | 87.9 °C | 1.9 µM | 12.4 µM | 6.15 µM | 6.1 µM | 2.27 µM |  | 76.1 µM | 26.9 µM | 0.4 | Active | 
10 | O=C1c2cccc3cccc(c23)C(=O)N1CCCNCCCCCCCCCCCCNCCCN1C(=O)c2cccc3cccc(c23)C1=O | 81.2 °C | 3.4 µM | 5.11 µM | 6.88 µM | 4.17 µM | 6.83 µM |  |  |  |  |  | 
11 | O=C1c2cccc3cccc(c23)C(=O)N1CCCNCCCNCCCCNCCCNCCCN1C(=O)c2cccc3cccc(c23)C1=O |  |  |  |  |  |  | 1.38 µM |  |  |  |  | 
12 | O=C1c2cccc3cccc(c23)C(=O)N1CCCNCCCCCCNCCCN1C(=O)c2cccc3cccc(c23)C1=O | 91.9 °C | 1.5 µM | 7.22 µM | 4.54 µM | 0.84 µM | 0.83 µM |  |  |  |  |  | 
13 | Br.O=C1c2cccc3cccc(c23)C(=O)N1CCCNCCCCCCCCNCCCN1C(=O)c2cccc3cccc(c23)C1=O | 88.7 °C | 1.7 µM | 4.99 µM | 2.68 µM | 2.77 µM | 0.87 µM |  | 5.8 µM | 5.1 µM | 0.9 |  | Active
14 | CN1CCN(c2ccc3[nH]c(-c4ccc5[nH]c(-c6ccc(O)cc6)nc5c4)nc3c2)CC1 | 78.8 °C |  |  |  |  |  |  |  |  |  |  | 
15 | COc1cccc2c1C(=O)c1c(O)c3c(c(O)c1C2=O)C[C@@](O)(C(=O)CO)C[C@@H]3O[C@H]1C[C@H](N)[C@H](O)[C@H](C)O1 [DOXORUBICIN] | 86.4 °C |  | 14.3 µM | 3.61 µM | 0.75 µM | 0.18 µM |  |  |  |  |  | 
